Experimental data reported in US20130296346A1, “DIPHENYL-AMINE DERIVATIVES: USES, PROCESS OF SYNTHESIS AND PHARMACEUTICAL COMPOSITIONS” (Faes Farma, S.A., priority 2010, published 2013).
Counter-ions that a name gives are not always drawn. Blank lines part the entries; values can stand above or below the compound they belong to.

Assays:
TNFr = assay: TNF-R transfectant, NF-kB reporter gene (secreted phosphatase); format: cell-based
Description: (§1) The secreted phosphatase sPase was used as reporter for its ability to process the luminiscent or colorimetric substrates from the culture based in the hydrolysis of substrates chemically similar to nitrophenol phosphate. Five generation of transfectants were developed as described: • 1. IL-4R. Chains of Type II IL-4-r, which is the common one within non-haematopoietic cells were transfected, as well as STAT6 which the key molecule in the nuclear signalling route by IL-4-r, and finally a reporter gene to measure the response to STAT6 was introduced. Endogenously, cells had Janus Associated Kinase 1 (JAK1) which was previously known to be associated with STAT6 via p62/aPKC. • 2. IL-6R. Chains of IL-6R were transfected and a reporter gene able to measure the response to STAT3 was introduced. As it is well known, STAT3 is a transductional molecule and a nuclear factor physiologically produced in the standard responses IL-6/IL-6R. • 3. TNF-R. In this case, a reporter gene able to measure the response to NF-kB was introduced, as this is the transductional molecule and the nuclear factor physiologically produced in response to TNF-alpha. […] LPS-Receptor complex represented by TLR4/MD2/CD14. Reporter genes with elements of response to NFkB were used as in the previous case, but the selectivity was achieved by the co-transfection of components of the LPS-R complex. The LPS is captured from the serum through the union to one plasma protein known as LBP, which transfers the LPS to the membrane protein CD14. The LBP inclusion accounts for an increase of 1000-fold the sensitivity versus media or cultures LBP-frees. The molecule CD14 is not an LPS-receptor but a module of the receptor complex which captures LBP, allowing the transference of LPS in the cellular surface to MD2. CD14 has not a cytoplasmic tail and it is not able to be a signal transducer but it substantially increases the sensitivity of the system. In a similar way, MD2 is not a signal transducer but the combination of CD14 and MD2 allows the increase of the sensitivity by 10000-fold. • 5. IL-1R. Reporter genes with elements of response to NFkB were used as in the previous case, but the selectivity was achieved by the expression of components belonging to the receptor complex IL-1R. IL-1R belongs to a receptors superfamily which uses TIR transduction domains (Toll-like IL-1R). It is known that the IL-1R route activates mitogen-activated protein kinases (MAPK) of JNK type which in turn generate nuclear factors transcriptionally active as AP-1. The reporter gene includes NFkB and AP-1 sites chained in order to simulate the physiological situation.

IL6r = assay: IL-6R transfectant, STAT3 reporter gene (secreted phosphatase); format: cell-based
Description: as §1

IL4r = assay: IL-4R transfectant, STAT6 reporter gene (secreted phosphatase); format: cell-based
Description: as §1

[1] = Cytotoxicity for human non-tumoral cells, XTT; format: cell-based; conditions: HUVEC cells (primary, from human cords)
Description: (§2) The cytotoxicity of the compounds for human non-tumoral cells was studied in fibroblasts, HUVEC cells and resting PBLs (Peripheral Blood lymphocytes).
HUVEC cells were obtained by treating human cords with collagenase type I, […] in Hank's medium incubating 20 minutes at 37° C. Cells were collected afterwards and cultivated in medium M199 with supplements of 20% FBS, 1% P/S and 25 mg/500 ml of medium ECGF, Cells were grown on a 0.2% gelatin matrix.
(§3) Distinct amounts of exponentially growing cells were seeded in 96-well flat-bottomed microtiter plates in a final volume of 100 μl were seeded in 96-well flat-bottomed microtiter plates, and incubated at 37° C. in a humidified atmosphere of 5% CO2/95% air for 24 h to allow the cells attach to the plates. Then, cells were incubated with different concentrations of the assayed compound at 37° C. under the 5% CO2/95% air atmosphere for 72 h. Cell proliferation was quantified using the XTT cell proliferation kit (Roche Molecular Biochemicals, Mannheim, Germany) following the manufacturer's instructions. Briefly, a freshly prepared mixture solution (50 μl) of XTT labelling reagent and PMS (N-methyldibenzopyrazine methyl sulfate) electron coupling reagent was added to each well. The resulting mixtures were further incubated for 4 h in a humidified atmosphere (37° C., 5% CO2), and the absorbance of the formazan product generated was measured with a microtiter plate reader at a test wavelength of 490 nm and a reference wavelength of 655 nm. The IC50 (50% inhibitory concentration) was then calculated as the drug concentration causing a 50% inhibition of cell proliferation. Data are shown as mean values of four independent experiments each performed in triplicate.

[2] = Cytotoxicity for human non-tumoral cells, XTT; format: cell-based; conditions: Fibroblasts
Description: as §2, §3

B16-F1 = assay: In vitro cytotoxicity, SRB method; format: cell-based; conditions: Mus musculus, B16-F1 melanoma, 72 hours
Description: (§4) SRB method was followed (Wieland, V., et al. Sulforhodamine B Assay and Chemosensitivity. Chemosensitivity, volume 1, In Vitro Assays. Methods in Molecular Medicine. Edited by Rosalyn D. Blumenthal. Humana Press, Totowa, N.J., 2005).
(§5) Cells were seeded in microplates of 96 wells. In each well, according to the cell type, specific number of cells were seeded in 200 microliters. In these conditions, cells were cultured for 3 days, with the aim of reaching their exponential phase of growing to assay the product cytotoxicity. The product concentrations were prepared just the day of treatments, after thawing the stock solutions (10 mM). After harvesting the microplate with the seeded cells for 3 days, the culture medium was discarded and replaced by 150 μl of fresh medium in each well. This was followed by the addition of 50 μl of the corresponding product dilution so as the final concentration in the final volume of 200 microliters in each well was the one scheduled. The products, at the assayed concentrations, were in contact with the cell growing monolayer for 72 hours and incubated at 37° C., 5% CO2. Finally, cells were growth arrested adding […] of cold TCA (Trichloroacetic acid) 50%, (final concentration of 10% in the well). Microplate was then maintained at 4° C. for over 60 min to fix cellular proteins till initiation of washing and staining with SRB.
(§6) Cell viability (%)=(Cell population of the treated well/Maximum cell population of the Standard curve)×100.
(§7) Mean viability values for each concentration were calculated from the values obtained for each well in which that concentration was assayed.

HCT116 = assay: In vitro cytotoxicity, SRB method; format: cell-based; conditions: Homo sapiens, HCT-116, HCT116 colon cancer, 72 hours
Description: as §4, §5, §6, §7

HepG2 = assay: In vitro cytotoxicity, SRB method; format: cell-based; conditions: Homo sapiens, HepG2 hepatoma, 72 hours
Description: as §4, §5, §6, §7

Malm-3M = assay: In vitro cytotoxicity, SRB method; format: cell-based; conditions: Malm-3M melanoma, 72 hours
Description: as §4, §5, §6, §7

NCI-H460 = assay: In vitro cytotoxicity, SRB method; format: cell-based; conditions: Homo sapiens, NCI-H460 lung, 72 hours
Description: as §4, §5, §6, §7

SF268 = assay: In vitro cytotoxicity, SRB method; format: cell-based; conditions: Homo sapiens, SF-268, SF268 glioblastoma, 72 hours
Description: as §4, §5, §6, §7

SW260 = assay: In vitro cytotoxicity, SRB method; format: cell-based; conditions: SW260 colon cancer, 72 hours
Description: as §4, §5, §6, §7

resting human PBLs = assay: Apoptosis of resting human PBLs; format: cell-based
Description: To isolate normal peripheral blood lymphocytes (PBLs), mononuclear cells were obtained from fresh human peripheral blood from healthy volunteers by centrifugation on Ficoll-Hypaque density gradients, washed with phosphate-buffered saline (PBS), and resuspended in RPMI-1640 medium containing 10% (v/v) heat-inactivated FBS, 2 mM L-glutamine, 100 U/ml penicillin, and 100 μg/ml streptomycin as described (Cabaner et al. Br. J. Pharmacol 127:813-825.1999). Monocytes were depleted by culture dish adherence after overnight incubation. Nonadherent cells (lymphocytes) were washed with PBS and collected. PBL preparations were typically 70-75% CD3^+, 24-29% CD 19^+, and less than 0.4% CD 14^+.

Structure (SMILES): Cl.FC(F)(F)Oc1ccc(CNCCC=C(c2ccccc2)c2ccccc2)cc1
melting point: 126 to 128 °C

Structure (SMILES): CC(=O)O[C@H]1C(=O)[C@@]2(C)[C@H]([C@H](OC(=O)c3ccccc3)[C@]3(O)C[C@H](OC(=O)[C@H](O)[C@@H](NC(=O)c4ccccc4)c4ccccc4)C(C)=C1C3(C)C)[C@]1(OC(C)=O)CO[C@@H]1C[C@@H]2O [Taxol, reference compound]
IC50 at 72 h [1]: 0.00047 µM | IC50 at 72 h [2]: 0.00075 µM

Structure (SMILES): COc1ccc(CNCCCC=C(c2ccccc2)c2ccccc2)cc1.Cl
melting point: 69.2 to 73.8 °C

Structure (SMILES): CC(C)n1ncc2c(NCCCCC=C(c3ccccc3)c3ccccc3)ncnc21 [Compound 44, (6,6-Diphenyl-hex-5-enyl)-(1-isopropyl-1H-pyrazolo[3,4-d]pyrimidin-4-yl)amine hydrochloric salt]
IC50 (B16-F1): 8 µM | IC50 (HCT116): 5 to 50 µM | IC50 (HepG2): 5 to 50 µM | IC50 (Malm-3M): 40 µM | IC50 (NCI-H460): 9.4 µM | IC50 (SF268): 31 µM | IC50 (SW260): 50 µM

Structure (SMILES): C(CCCNCc1ccccn1)=C(c1ccccc1)c1ccccc1.Cl
melting point: 125 to 126.9 °C

Structure (SMILES): COc1cccc2c1C(=O)c1c(O)c3c(c(O)c1C2=O)C[C@@](O)(C(=O)CO)C[C@@H]3O[C@H]1C[C@H](N)[C@H](O)[C@H](C)O1 [Doxorubicin, reference compound]
IC50 at 72 h [1]: 0.23 µM | % Apoptosis PBLs (resting human PBLs; 10^−4 M): 21.7% | % Apoptosis PBLs (resting human PBLs; 10^−5 M): 13.2%

Structure (SMILES): C(CCCNc1ncnc2[nH]ncc12)=C(c1ccccc1)c1ccccc1 [Compound 41, (5,5-Diphenyl-pent-4-enyl)-(1H-pyrazolo[3,4-d]pyrimidin-4-yl)amine]
IC50 (B16-F1): 6 µM | IC50 (HCT116): 5 to 50 µM | IC50 (HepG2): 5 to 50 µM | IC50 (Malm-3M): 44 µM | IC50 (NCI-H460): 2 µM | IC50 (SF268): 17 µM | IC50 (SW260): 5 to 50 µM

Structure (SMILES): C(CCCCNc1ncnc2[nH]ncc12)=C(c1ccccc1)c1ccccc1 [Compound 40, (6,6-Diphenyl-hex-5-enyl)-(1H-pyrazolo[3,4-d]pyrimidin-4-yl)amine]
IC50 (B16-F1): 9 µM | IC50 (HCT116): 5 to 50 µM | IC50 (HepG2): 5 to 50 µM | IC50 (Malm-3M): 30 µM | IC50 (NCI-H460): 8.1 µM | IC50 (SF268): 33 µM | IC50 (SW260): 50 µM | IC50 at 72 h [1]: 36 µM

Now from value to compound, other results behind:

Inhibition of TNFr (TNFr): Inhibition of TNFr up 30% | Inhibition of IL6r (IL6r): Inhibition of IL6r down 5% | Inhibition of IL4r (IL4r): Inhibition of IL4r total | melting point: 109 to 110.7 °C
Structure (SMILES): Cl.FC(F)(F)Oc1ccccc1CNCCCC=C(c1ccccc1)c1ccccc1 [Compound 10, (5,5-diphenyl-pent-4-enyl)-(2-trifluoromethoxybenzyl)amine hydrochloride]

Inhibition of TNFr (TNFr): Inhibition of TNFr total | Inhibition of IL6r (IL6r): Inhibition of IL6r total | Inhibition of IL4r (IL4r): Inhibition of IL4r total | melting point: 163 to 165.5 °C
Structure (SMILES): C(CCNCc1cccs1)=C(c1ccccc1)c1ccccc1.Cl [Compound 13, (4,4-diphenyl-but-3-enyl)-thiophen-2-ylmethyl-amine hydrochloride]

Inhibition of TNFr (TNFr): Inhibition of TNFr total | Inhibition of IL6r (IL6r): Inhibition of IL6r low-75% | Inhibition of IL4r (IL4r): Inhibition of IL4r total
Structure (SMILES): Cc1nc2ccccc2n1CCCC=C(c1ccccc1)c1ccccc1 [Compound 27]

melting point: 205.7 to 207 °C
Structure (SMILES): Clc1nc(NCCCCC=C(c2ccccc2)c2ccccc2)c2nc[nH]c2n1 [Compound 29, (2-Chloro-9H-purin-6-yl)-(6,6-diphenyl-hex-5-enyl)-amine]

melting point: 102.4 to 104 °C
Structure (SMILES): Cl.FC(F)(F)Oc1cccc(CNCCCC=C(c2ccccc2)c2ccccc2)c1

melting point: 109 to 110.5 °C
Structure (SMILES): Cl.FC(F)(F)Oc1ccc(CNCCCCC=C(c2ccccc2)c2ccccc2)cc1

melting point: 108 to 109.7 °C
Structure (SMILES): C(CCCNCc1ccsc1)=C(c1ccccc1)c1ccccc1.Cl

Inhibition of IL6r (IL6r): Inhibition of IL6r down-low (*)
Structure (SMILES): C(CCCn1ccnc1)=C(c1ccccc1)c1ccccc1 [Compound 28, 1-(5,5-Diphenyl-pent-4-enyl)-1H-imidazole]
Inhibition of TNFr (TNFr): Inhibition of TNFr 25% | Inhibition of IL4r (IL4r): Inhibition of IL4r 75%

melting point: 121.4 to 122.7 °C
Structure (SMILES): Cl.FC(F)(F)c1ccc(CNCCCC=C(c2ccccc2)c2ccccc2)cc1
